Here are results for three molecules from ChEMBL document CHEMBL1148775, “Synthesis and in vivo evaluation of fluorine-18 and iodine-123 labeled 2beta-carbo(2-fluoroethoxy)-3beta-(4'-((Z)-2-iodoethenyl)phenyl)nortropane as a candidate serotonin transporter imaging agent” (J Med Chem, 2007).

Data set [1] concerns the target Sodium-dependent serotonin transporter (Homo sapiens, UniProt P31645). Nature of the data set: Binding affinity to human SERT expressed in HEK293 cells. The format is cell-based.
Data set [2] in a line: Partition coefficient, log P at pH 7.4. The format is physicochemical. As to conditions: octanol/water.
The target of data set [3] is Sodium-dependent noradrenaline transporter (Homo sapiens, UniProt P23975). Description: Binding affinity to human NET expressed in HEK293 cells. The format is cell-based.
Chain of Sodium-dependent noradrenaline transporter (P23975 whole entry): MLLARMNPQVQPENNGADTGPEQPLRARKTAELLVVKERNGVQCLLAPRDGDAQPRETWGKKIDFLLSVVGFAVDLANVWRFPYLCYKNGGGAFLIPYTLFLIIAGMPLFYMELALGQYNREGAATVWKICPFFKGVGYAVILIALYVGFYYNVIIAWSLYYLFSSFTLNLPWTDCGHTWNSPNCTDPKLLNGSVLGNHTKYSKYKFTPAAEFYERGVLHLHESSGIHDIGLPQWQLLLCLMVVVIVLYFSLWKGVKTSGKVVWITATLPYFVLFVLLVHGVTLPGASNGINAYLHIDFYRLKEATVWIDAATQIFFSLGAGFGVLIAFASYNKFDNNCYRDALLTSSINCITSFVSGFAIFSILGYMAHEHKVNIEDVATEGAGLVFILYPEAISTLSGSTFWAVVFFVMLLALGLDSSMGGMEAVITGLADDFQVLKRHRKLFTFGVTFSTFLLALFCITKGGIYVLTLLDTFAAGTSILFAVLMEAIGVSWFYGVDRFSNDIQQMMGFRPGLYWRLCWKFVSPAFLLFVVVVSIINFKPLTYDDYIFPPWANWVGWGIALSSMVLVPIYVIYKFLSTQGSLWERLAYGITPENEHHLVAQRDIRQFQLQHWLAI
The target in data set [4] is Sodium-dependent dopamine transporter (Homo sapiens, UniProt Q01959). Nature of the data set: Binding affinity to human DAT expressed in HEK293 cells. The format is cell-based.
Chain of Sodium-dependent dopamine transporter (Q01959 whole entry): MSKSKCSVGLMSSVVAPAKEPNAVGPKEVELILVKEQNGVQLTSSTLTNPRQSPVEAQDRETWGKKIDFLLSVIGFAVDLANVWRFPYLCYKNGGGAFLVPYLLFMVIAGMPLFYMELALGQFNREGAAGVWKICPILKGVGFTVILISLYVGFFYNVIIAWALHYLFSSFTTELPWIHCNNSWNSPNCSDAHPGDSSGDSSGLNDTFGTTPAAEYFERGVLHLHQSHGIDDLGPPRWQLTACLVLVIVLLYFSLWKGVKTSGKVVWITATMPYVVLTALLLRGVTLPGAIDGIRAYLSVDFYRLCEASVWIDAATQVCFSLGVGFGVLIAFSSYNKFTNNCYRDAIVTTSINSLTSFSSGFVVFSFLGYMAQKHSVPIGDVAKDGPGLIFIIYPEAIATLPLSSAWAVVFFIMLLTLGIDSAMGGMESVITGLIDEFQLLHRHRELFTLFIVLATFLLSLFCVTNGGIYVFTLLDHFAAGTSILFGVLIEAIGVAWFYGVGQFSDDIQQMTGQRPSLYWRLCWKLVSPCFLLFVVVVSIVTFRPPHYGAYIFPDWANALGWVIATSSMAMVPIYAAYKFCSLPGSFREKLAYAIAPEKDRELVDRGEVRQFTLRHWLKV
The nature of data set [5]: Ratio of drug level in putamen to cerebellum in cynomolgus monkey after 235 mins. The format is ADME, tissue-based, Macaca fascicularis. As to conditions: in vivo.
Data set [6] in a line: Ratio of drug level in medulla to cerebellum in cynomolgus monkey after 235 mins. The format is ADME, tissue-based, Macaca fascicularis. Conditions: in vivo.
Data set [7] can be described thus: Ratio of drug level in midbrain to cerebellum in cynomolgus monkey after 235 mins. The format is ADME, tissue-based, Macaca fascicularis. As to conditions: in vivo.
Data set [8] can be described thus: Ratio of drug level in caudate to cerebellum in cynomolgus monkey after 235 mins. As to conditions: in vivo. The format is ADME, tissue-based, Macaca fascicularis.
The nature of data set [9]: Ratio of drug level in thalamus to cerebellum in cynomolgus monkey after 235 mins. Conditions: in vivo. The format is ADME, tissue-based, Macaca fascicularis.
A short description of data set [10]: Ratio of drug level in occipital cortex to cerebellum in cynomolgus monkey after 235 mins. The format is ADME, tissue-based, Macaca fascicularis. Conditions: in vivo.
Data set [11] is described as follows: Biodistribution in iv dosed Sprague-Dawley rat pons in presence of RTI-113 at 6 mg/kg after 60 mins. The format is ADME, organism-based. More on the design: dose 6 mg/kg, route intravenous. Conditions: read-out: Drug uptake.
Data set [12] in a line: Biodistribution in iv dosed Sprague-Dawley rat cerebellum in presence of reboxetine at 6 mg/kg after 60 mins. The format is ADME, organism-based. More on the design: dose 6 mg/kg, route intravenous. As to conditions: read-out: Drug uptake.
Data set [13] can be described thus: Biodistribution in iv dosed Sprague-Dawley rat cerebellum in presence of RTI-113 at 6 mg/kg after 60 mins. The format is ADME, organism-based. Details: dose 6 mg/kg, route intravenous. Conditions: read-out: Drug uptake.
A short description of data set [14]: Biodistribution in iv dosed Sprague-Dawley rat occipital cortex in presence of citalopram at 6 mg/kg after 60 mins. More on the design: dose 6 mg/kg, route intravenous. The format is ADME, organism-based. Conditions: read-out: Drug uptake.
The nature of data set [15]: Biodistribution in iv dosed Sprague-Dawley rat occipital cortex in presence of RTI-113 at 6 mg/kg after 60 mins. As to conditions: read-out: Drug uptake. The format is ADME, organism-based. Details: dose 6 mg/kg, route intravenous.
Data set [16] is described as follows: Biodistribution in iv dosed Sprague-Dawley rat hypothalamus in presence of reboxetine at 6mg/kg after 60 mins. The format is ADME, organism-based. Conditions: read-out: Drug uptake.
Data set [17] can be described thus: Biodistribution in iv dosed Sprague-Dawley rat cerebellum after 60 mins. The format is ADME, organism-based. Conditions: read-out: Drug uptake.
A short description of data set [18]: Biodistribution in iv dosed Sprague-Dawley rat striatum in presence of citalopram at 6 mg/kg after 60 mins. The format is ADME, organism-based. More on the design: dose 6 mg/kg, route intravenous. As to conditions: read-out: Drug uptake.
The nature of data set [19]: Biodistribution in iv dosed Sprague-Dawley rat hippocampus after 60 mins. The format is ADME, organism-based. Conditions: read-out: Drug uptake.
A short description of data set [20]: Biodistribution in iv dosed Sprague-Dawley rat pons in presence of citalopram at 6 mg/kg after 60 mins. Details: dose 6 mg/kg, route intravenous. As to conditions: read-out: Drug uptake. The format is ADME, organism-based.
The nature of data set [21]: Biodistribution in iv dosed Sprague-Dawley rat pre frontal cortex after 60 mins. The format is ADME, organism-based. Conditions: prefrontal cortex, read-out: Drug uptake.
The nature of data set [22]: Biodistribution in iv dosed Sprague-Dawley rat hippocampus in presence of RTI-113 at 6 mg/kg after 60 mins. The format is ADME, organism-based. Details: dose 6 mg/kg, route intravenous. Conditions: read-out: Drug uptake.
Data set [23] in a line: Biodistribution in iv dosed Sprague-Dawley rat striatum in presence of reboxetine at 6 mg/kg after 60 mins. The format is ADME, organism-based. Details: dose 6 mg/kg, route intravenous. As to conditions: read-out: Drug uptake.
Data set [24] can be described thus: Biodistribution in iv dosed Sprague-Dawley rat pons in presence of reboxetine at 6 mg/kg after 60 mins. The format is ADME, organism-based. Details: dose 6 mg/kg, route intravenous. As to conditions: read-out: Drug uptake.
A further data set relates to Cerebellum. Description: Biodistribution in iv dosed Sprague-Dawley rat cerebellum after 5 mins. The format is ADME, organism-based. As to conditions: in vivo.
A short description of data set [25]: Biodistribution in iv dosed Sprague-Dawley rat hypothalamus after 60 mins. The format is ADME, organism-based. Conditions: read-out: Drug uptake.
Data set [26] in a line: Biodistribution in iv dosed Sprague-Dawley rat pre frontal cortex in presence of citalopram at 6 mg/kg after 60 mins. The format is ADME, organism-based. Details: dose 6 mg/kg, route intravenous. As to conditions: prefrontal cortex, read-out: Drug uptake.
Data set [27] in a line: Biodistribution in iv dosed Sprague-Dawley rat pre frontal cortex in presence of RTI-113 at 6 mg/kg after 60 mins. The format is ADME, organism-based. More on the design: dose 6 mg/kg, route intravenous. As to conditions: prefrontal cortex, read-out: Drug uptake.
Data set [28] is described as follows: Biodistribution in iv dosed Sprague-Dawley rat striatum in presence of RTI-113 at 6 mg/kg after 60 mins. The format is ADME, organism-based. Details: dose 6 mg/kg, route intravenous. As to conditions: read-out: Drug uptake.
The nature of data set [29]: Biodistribution in iv dosed Sprague-Dawley rat pons after 60 mins. The format is ADME, organism-based. Conditions: read-out: Drug uptake.
Data set [30] is described as follows: Biodistribution in iv dosed Sprague-Dawley rat striatum in after 60 mins. The format is ADME, organism-based. Conditions: read-out: Drug uptake.
Data set [31] in a line: Biodistribution in iv dosed Sprague-Dawley rat pre frontal cortex in presence of reboxetine at 6 mg/kg after 60 mins. The format is ADME, organism-based. More on the design: dose 6 mg/kg, route intravenous. Conditions: prefrontal cortex, read-out: Drug uptake.
A short description of data set [32]: Biodistribution in iv dosed Sprague-Dawley rat hippocampus in presence of citalopram at 6 mg/kg after 60 mins. Details: dose 6 mg/kg, route intravenous. The format is ADME, organism-based. As to conditions: read-out: Drug uptake.
A short description of data set [33]: Biodistribution in iv dosed Sprague-Dawley rat hippocampus in presence of reboxetine at 6 mg/kg after 60 mins. The format is ADME, organism-based. Details: dose 6 mg/kg, route intravenous. Conditions: read-out: Drug uptake.
Data set [34] is described as follows: Biodistribution in iv dosed Sprague-Dawley rat hypothalamus in presence of RTI-113 at 6 mg/kg after 60 mins. Conditions: read-out: Drug uptake. More on the design: dose 6 mg/kg, route intravenous. The format is ADME, organism-based.
A short description of data set [35]: Biodistribution in iv dosed Sprague-Dawley rat cerebellum in presence of citalopram at 6 mg/kg after 60 mins. The format is ADME, organism-based. More on the design: dose 6 mg/kg, route intravenous. As to conditions: read-out: Drug uptake.
Data set [36] can be described thus: Biodistribution in iv dosed Sprague-Dawley rat hypothalamus in presence of citalopram at 6 mg/kg after 60 mins. The format is ADME, organism-based. Details: dose 6 mg/kg, route intravenous. As to conditions: read-out: Drug uptake.
Data set [37] in a line: Biodistribution in iv dosed Sprague-Dawley rat occipital cortex in presence of reboxetine at 6 mg/kg after 60 mins. The format is ADME, organism-based. Details: dose 6 mg/kg, route intravenous. Conditions: read-out: Drug uptake.
The nature of data set [38]: Biodistribution in iv dosed Sprague-Dawley rat occipital cortex after 60 mins. The format is ADME, organism-based. As to conditions: read-out: Drug uptake.

Chain of Sodium-dependent serotonin transporter (P31645 whole entry): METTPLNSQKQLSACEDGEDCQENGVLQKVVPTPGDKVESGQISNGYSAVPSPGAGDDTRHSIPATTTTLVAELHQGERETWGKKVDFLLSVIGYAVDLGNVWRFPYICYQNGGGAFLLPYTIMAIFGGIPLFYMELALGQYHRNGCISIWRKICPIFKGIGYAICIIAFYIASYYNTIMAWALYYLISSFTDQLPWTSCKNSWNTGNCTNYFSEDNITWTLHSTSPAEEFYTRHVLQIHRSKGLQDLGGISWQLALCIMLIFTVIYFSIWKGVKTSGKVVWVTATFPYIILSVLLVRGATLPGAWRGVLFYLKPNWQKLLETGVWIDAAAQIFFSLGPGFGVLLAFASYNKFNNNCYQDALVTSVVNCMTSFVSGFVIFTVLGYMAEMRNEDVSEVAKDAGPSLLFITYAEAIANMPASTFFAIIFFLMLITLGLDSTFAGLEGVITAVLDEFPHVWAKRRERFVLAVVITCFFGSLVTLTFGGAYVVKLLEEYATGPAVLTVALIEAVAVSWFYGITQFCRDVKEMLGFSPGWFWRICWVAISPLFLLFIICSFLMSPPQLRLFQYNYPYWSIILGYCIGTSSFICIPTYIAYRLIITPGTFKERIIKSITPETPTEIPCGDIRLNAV

The term Ki denotes the dissociation constant of the complex between target and ligand, obtained from inhibition or displacement. By logD is commonly meant lipophilicity at a set pH, counting ionised and neutral species. `O=C(OCCF)C1C2CCC(CC1c1ccc(/C=C\I)cc1)N2` (centres undefined): the inhibitory constant (Ki) in data set [1] turned out to be 0.08 nM; in [3] it was 28 nM; in data set [4], 13 nM. In addition, the log distribution coefficient (logD) in data set [2] was 1.8.

`O=C(OCC[18F])C1C2CCC(CC1c1ccc(/C=C\I)cc1)N2` (centres undefined): the Ratio in data set [5] worked out at 3.8; in data set [6], 3.3; in data set [7], 4.4; in data set [8], 2.6; in data set [9] it was 3.3; in [10] it was 1.6.

With `O=C(OCCF)C1C2CCC(CC1c1ccc(/C=C\[123I])cc1)N2` (centres undefined), the tissue uptake at 1 h turned out to be 0.22 %ID/g in [11]; 0.13 %ID/g in data set [12]; 0.12 %ID/g in data set [13]; 0.16 %ID/g in [14]; 0.24 %ID/g in data set [15]; 0.26 %ID/g in data set [16]. Further, the tissue uptake at 1 h was found to be 0.12 %ID/g in data set [17]; 0.15 %ID/g in data set [18]; 0.24 %ID/g in data set [19]; 0.14 %ID/g in data set [20]; 0.26 %ID/g in [21]; 0.25 %ID/g in [22]. For the same molecule, the tissue uptake at 1 h was 0.26 %ID/g in data set [23]; 0.2 %ID/g in data set [24]; 0.27 %ID/g in data set [25]; 0.17 %ID/g in data set [26]; 0.28 %ID/g in [27]; 0.26 %ID/g in data set [28]. For the same molecule, the tissue uptake at 1 h in [29] came to 0.22 %ID/g; in [30] it was 0.25 %ID/g; in [31] it was 0.28 %ID/g; in data set [32], 0.16 %ID/g; in data set [33], 0.23 %ID/g; in data set [34], 0.32 %ID/g. Moreover, the tissue uptake at 1 h in data set [35] was 0.11 %ID/g; in data set [36] it was 0.18 %ID/g; in [37], 0.23 %ID/g; in [38], 0.24 %ID/g. The molecule also registered a Drug uptake in the data set with Cerebellum of 0.24 % ID/g.
